Patent publication US20210268030A1, “FIBROADIPOGENIC PROGENITOR-DERIVED EXOSOMES FOR REGENERATION OF DYSTROPHIC MUSCLES” (EXOFIX S.R.L., priority 2018, published 2021)

Legend:
MuSCs [1] = assay: Transwell co-culture of FAPs with MuSCs, myogenic differentiation (fusion index); format: cell-based, mdx mice; conditions: FAPs exposed to GW4869 (10 uM) before transwell co-culture
Experimental: MuSCs and FAP cells were co-cultured by using inserts with 1.0 μm porous membrane to avoid direct contact between populations.
Cell culture inserts with 1.0-·m pore (#353102, #353104, Falcon) and 6 or 24 -well culture plates (BD Bioscience) were used for transwell co-culture. Freshly sorted MuSCs were plated in the bottom of the plate, while FAP cells were plated on the upper insert.
To decrease FAP-exosomes release, GW4869 (10 uM, #D1692, Sigma) was added to FAPs culture 30′ before the co-culture setting with MuSCs. To wash away any residual trace of GW4869, FAPs media was refreshed right before co-culture.
For Drosha SiRNA treatments, in vivo TSA treated FAPs on transwell were transfected with commercially available Drosha siRNA using Dharmafect3.0 (Dharmacon) according to manufacturer instructions; after 6 hours FAPs were put in co-culture with MuSCs.
We began to determine the identity of the extracellular mediators of FAP's support to MuSCs in DMD muscles, by performing transwell co-cultures between FAPs isolated from 1.5 month old mdx mice and MuSCs isolated from age-matched mdx mice. In transwell cultures, cells are separated by a membrane of 1 μm pore size that prevents direct cell contact, yet allows reciprocal transfer of soluble mediators of functional interactions between co-cultured cells.

MuSCs [2] = assay: PKH-67 tracing of exosome transfer from FAPs to MuSCs in transwell co-culture; format: cell-based, mdx mice; conditions: PKH67-labelled FAPs exposed to GW4869
Experimental: To stain FAPs derived exosomes, FAP cells were incubated with the lipidic dye PKH-67 (#P7333, Sigma) according to manufacturer instructions prior to transwell co-culture with MuSCs.
To analyse the capacity of MuSCs to uptake FAP-derived exosomes, we performed a transwell co-culture in which the potential “source” of exosomes—FAPs—was […] prior to transwell co-culture with the “acceptor” cells—MuSCs. […] PKH-67 is incorporated into newly generated exosomes, and therefore traces their passage to acceptor cells.

[3] = system: MuSCs within single fibres; assay: Single muscle fibres incubated with FAP conditioned media or exosomes (Pax7, MyoD, EdU); format: cell-based, C57BL6J-WT mice
Experimental: Single fibers were isolated using Pasut (2013) and Moyle's protocol (2014) from tibialis anterior, extensor digitorum longus, gastrocnemius and soleus muscles of C57BL6J-WT mice and cultured in proliferating medium (GM1: DMEM+pyruvate+4.5 g/l glucose+glutamate, 10% horse serum (HS), 0.5% Chicken Embryo Extract) for 24 hours, then exposed for the next 24 hrs to GM1 conditioned media derived from culture of FAPs (MEDIA-FAPs) isolated from young mdx mouse treated for 15 days with vehicle (CTR) or mdx mice treated with TSA (TSA) or media isolated from FAPs CTR and TSA pre-treated with the GW4869 to inhibit exosome biogenesis. In a parallel, independent experiment, single fibers were exposed to exosomes (EXO-FAPs) purified from MEDIA-FAPs and added to GM1 for 24 hours.
In ex-vivo experiments FAP-derived Exosomes (10·g) isolated by TEIR were put in culture with MuSCs or with myofibers in the cell culture media.
To investigate this hypothesis, we evaluated the effect of FAP-derived exosomes from HDACi-treated or control-treated mdx mice on MuSCs within single fibres isolated from WT mice. Freshly isolated single muscle fibres from tibialis anterior, extensor digitorum longus, gastrocnemius and soleus of C57BL6J mice were incubated with FAP-derived exosomes or whole conditioned media, and their effect on MuSCs was evaluated by monitoring the expression of Pax7, MyoD and DNA synthesis (EdU incorporation). In this experimental setting, the uptake of FAP-derived exosomes by MuSCs from single fibers was first confirmed by staining of lipidic dye PKH-67 used on purified vesicles (FIG. 6B).

[4] = system: animals affected by muscular dystrophy; conditions: in vivo; cited from earlier work
muscles of DMD patients = conditions: phase I/II clinical trial, after one year of treatment; cited from earlier work
preclinical model of DMD = conditions: Colussi et al. 2010; cited from earlier work
[5] = supernatant of FAPs from control-treated mdx mice pre-exposed to GW4869

Q: What does the source list for O=C(/C=C/c1ccc(/C=C/C(=O)Nc2ccc(C3=NCCN3)cc2)cc1)Nc1ccc(C2=NCCN2)cc1 [GW4869]?
A: FAP's ability to enhance MuSCs differentiation into multinucleated myotubes (MuSCs [1]): abrogated; prevention of detection of the PKH-67 signal in MuSCs co-cultured with FAPs (MuSCs [2]): more than 80%; ability of the whole supernatant to increase all MuSC populations as well as their proliferation ([3]; GW4869 treatment of FAPs from TSA-treated mdx mice): drastically reduced; number of Pax7+/MyoD+ MuSCs with high DNA synthesis (Edu+) [3, 5]: not altered; number of quiescent (Pax7+MyoD−) and differentiation-committed (Pax7- MyoD+) MuSCs [3, 5]: drastic reduction

Q: Which results are given for CCN(CC)Cc1ccc2cc(COC(=O)Nc3ccc(C(=O)NO)cc3)ccc2c1 [Givinostat]?
A: activity in the treatment of animals affected by muscular dystrophy [4]: active; histology of the muscles of DMD patients (muscles of DMD patients): positively affect

Q: With Nc1ccccc1NC(=O)c1ccc(CNC(=O)OCc2cccnc2)cc1 [MS-275] as the compound, how does the “activity in the treatment of animals affected by muscular dystrophy” value [4] read?
A: active

Q: With O=C(CCCCCCC(=O)Nc1ccccc1)NO [Vorinostat] as the compound, how does the “activity in the treatment of animals affected by muscular dystrophy” value [4] read?
A: active

Q: And the dose response curve (preclinical model of DMD)?
A: bell-shaped
